Assay results: patent publication US12643893B2, “Heteroaryl-pyridinium compound and redox flow battery comprising the same” (Korea Advanced Institute of Science and Technology, priority 2021, dated 2026)

What was measured:
[1] = Cyclic voltammetry (CV) in three-electrode cells; type: physicochemical; conditions: for Peak to peak potential difference (ΔEp) / Ratio of anodic peak current (Ipa) to cathodic peak current (Ipc) (Ipa/Ipc) @50 mV s^−1: 1st event (or only value)
Experimental: All electrochemical examinations were carried out using a Biologic VMP3 electrochemical workstation in an Ar-filled glove box (MOTek, negligible O2 and H2O, tested by the ketyl solution).
Cyclic voltammetry (CV) was conducted in three-electrode cells comprised of glassy carbon (GC; diameter (d)=3 mm) as the working electrode (WE), a platinum wire as the counter electrode (CE), and a leak-free Ag/AgCl as the reference electrode (RE). The GC electrodes were polished using alumina slurry before testing (ALS Co., Ltd).
After CV analysis, ferrocene (Fc, ferrocene, 98%, Sigma-Aldrich) was added to the cell to measure its redox potential, and the measured sample potential was converted to the Fc/Fc^+.

[2] = Rotating disk electrode LSV, diffusion coefficient (Levich equation); type: physicochemical
Experimental: To measure diffusion coefficient (D), rotating disk electrode (RDE; ALS Co., Ltd) measurements were conducted with the same three-electrode cells. […] Limited mass-transport provides a current plateau (iL) of redox processes, which is linearly proportional to the square root of the rotating rates (ω^1/2). The diffusion coefficient (D) was calculated by plotting IL as a function of ω^1/2 and through the Levich equation (equation S1). iL=0.620nFAD^2/3ω^1/2η^−1/6Co (equation S1)
where IL is the limiting current (A cm^−2), n is the number of electrons transferred during the redox reaction, F is the Faraday's constant (96485 C mol^−1), A is the area of the electrode (0.0707 cm^2), D is the diffusion coefficient (cm^2 […]), ω is the angular rotation rate (rad s^−1), η is the kinematic viscosity (0.00442 cm^2 s^−1, referred to 0.1 M TBAPF6/MeCN), and Co is the concentration of the sample chemical.

[3] = Electron-transfer rate from CV curves (Nicholson method); type: physicochemical
Experimental: The electron-transfer rate (k^0) was calculated from CV curves and using the Nicholson method(equation S2).
where k^o is the electron-transfer constant (cm/s), D is the diffusion coefficient estimated from the above RDE studies, R is the gas constant (8.314 J K^−1 mol^−1), T is the temperature (298 K), v is the scan rate of the CVs (mV s^−1).
The Ψ value was obtained by Kingler and Kochi relation (equation S3).
where ΔEp is the peak-to-peak potential for the corresponding reduction or oxidation event.

[4] = Solubility test (UV-vis calibration curves, maximum solubility); conditions: for solubility: organic solvent or mixture, thermodynamic from solid
[5] = 1st event (single value for BTMAP-Fc), after 100 cycles (in parentheses)
[6] = 1st event (single value for BTMAP-Fc), initial
[7] = 1st redox event (single value for BTMAP-Fc), 4 mM in 0.1 M TBATFSI/MeCN
[8] = 2nd event, after 100 cycles (in parentheses)
[9] = 2nd redox event, 4 mM in 0.1 M TBATFSI/MeCN
[10] = c1, first cathodic event (single value for BTMAP-Fc, oxidation process)
[11] = 0.5 M TBATFSI in MeCN, Solubility 0.5M TBATFSI/MeCN (M), electrolyte solution 0.5M TBATFSI/MeCN
[12] = 0.5 M TBATFSI in MeCN, maximum solubility in electrolyte solution, 0.5 M TBATFSI/MeCN
[13] = MeCN, Solubility MeCN (M), in MeCN
[14] = after 100 cycles (in parentheses)
[15] = initial, 10 mM in 0.1 M TBABF4/MeCN
[16] = 1st redox event (or the only value given), 10 mM in 0.1 M TBABF4/MeCN

| Ipa/Ipc @50 mV s^−1 [1, 5] | ΔEp [1, 5] | Ipa/Ipc @50 mV s^−1 [1, 6] | ΔEp [1, 6] | E^o′ [1, 7] | Ipa/Ipc @50 mV s^−1 [1, 8] | ΔEp [1, 8] | Ipa/Ipc @50 mV s^−1 ([1]; 2nd event, initial) | ΔEp ([1]; 2nd event, initial) | E^o′ [1, 9] | D (diffusion coefficient) [2, 10] | D (diffusion coefficient) ([2]; c2, second cathodic event) | k^o (electron-transfer constant) [3, 10] | k^o (electron-transfer constant) ([3]; c2, second cathodic event) | solubility [4, 11] [M] | solubility [4, 12] [M] | solubility [4, 13] [M] | Peak to peak potential difference (ΔEp) [1, 14] | Ratio of anodic peak current (Ipa) to cathodic peak current (Ipc) (Ipa/Ipc) @50 mV s^−1 [1, 14] | Peak to peak potential difference (ΔEp) [1, 15] | SMILES | other results |
| --- | --- | --- | --- | --- | --- | --- | --- | --- | --- | --- | --- | --- | --- | --- | --- | --- | --- | --- | --- | --- | --- |
| (0.97) | (105) mV | 1st = 0.97 | 1st = 105 mV | 1st = −1.19 V vs. Fc/Fc^+ | (1.18) | (85) mV | 2nd = 1.08 | 2nd = 94 mV | 2nd = −1.87 V vs. Fc/Fc^+ | c1 = 1.91 X10^−6 cm^2 s^−1 | c2 = 1.91 X10^−6 cm^2 s^−1 | c1 = 0.114 cm s^−1 | c2 = 0.124 cm s^−1 | 0.34 | 0.34 | 0.89 | – | – | – | C[N+](C)(C)CCC[n+]1ccc(-c2nc3ccccc3s2)cc1 [TMAP-BTP^2+·2TFSI^−, 4-(benzo[d]thiazol-2-yl)-1-(3-(trimethylammonio)propyl)pyridin-1-ium bistriflimide] | – |
| (0.99) | 1st = 99 (99) mV | 1st = 1.01 | 1st = 99 (99) mV | 1st = −1.21 V vs. Fc/Fc^+ | (0.87) | 84 mV | 2nd = 0.95 | 93 mV | 2nd = −1.90 V vs. Fc/Fc^+ | c1 = 3.71 X10^−6 cm^2 s^−1 | c2 = 3.32 X10^−6 cm^2 s^−1 | c1 = 0.086 cm s^−1 | c2 = 0.090 cm s^−1 | 0.47 | 0.47 | 1 | – | – | – | C[n+]1ccc(-c2nc3ccccc3s2)cc1 [BTP^+·TFSI^−, 4-(benzo[d]thiazol-2-yl)-1-methylpyridin-1-ium bistriflimide] | Formal potential (E^o′) ([1]; first redox event (single event for BTMAP-Fc), CV, 4 mM in 0.1 M TBATFSI/MeCN): −1.21 V vs. Fc/Fc^+; peak-to-peak potential difference (ΔEp) ([1]; maintained for 100 CV cycles): ~99 mV; anodic-to-cathodic peak current ratio (Ipa/Ipc) ([1]; preserved during 100 CV cycles): 1.01; Formal potential (E^o′) ([1]; second redox event, CV, 4 mM in 0.1 M TBATFSI/MeCN): −1.90 V vs. Fc/Fc^+ |
| – | – | – | – | – | – | – | – | – | – | – | – | – | – | – | – | – | 1st = 105 (105) mV | 0.46 | 1st = 105 (105) mV | C[n+]1ccc(-c2nc3ccccc3o2)cc1 [BOP^+·BF4^−, 4-(benzo[d]oxazol-2-yl)-1-methylpyridin-1-ium tetrafluoroborate] | Ratio of anodic peak current (Ipa) to cathodic peak current (Ipc) (Ipa/Ipc) @50 mV s^−1 [1, 15]: 0.79; Formal potential (E^o′) [1, 16]: 1st = −1.15 V vs. Fc/Fc^+ |
| – | – | – | – | – | – | – | – | – | – | – | – | – | – | – | – | – | – | – | – | c1ccc2sc(-c3cc[n+](CCCCC[n+]4ccc(-c5nc6ccccc6s5)cc4)cc3)nc2c1 [Di-BTP^2+·2PF6^−, 1,1′-(pentane-1,5-diyl)bis(4-(benzo[d]thiazol-2-yl)pyridin-1-ium) hexafluorophosphate] | solubility ([4]; MeCN, Solubility (M) in MeCN, in MeCN): 0.1 M |
| – | – | – | – | – | – | – | – | – | – | – | – | – | – | – | – | – | – | – | – | C[N+](C)(C)CCC[n+]1ccc(-c2nc3ccccc3s2)cc1 [TMAP-BTP^2+·2PF6^−, 4-(benzo[d]thiazol-2-yl)-1-(3-(trimethylammonio)propyl)pyridin-1-ium hexafluorophosphate] | solubility ([4]; 0.5 M TBAPF6 in MeCN, maximum solubility in electrolyte solution, 0.5 M TBAPF6/MeCN): 0.026 M; Solubility (M) MeCN ([4]; in MeCN): 0.25 M; Solubility (M) in MeCN ([4]; in MeCN): 0.25 M; maximum solubility in MeCN ([4]; in MeCN): 250 mM |
| – | – | – | – | – | – | – | – | – | – | – | – | – | – | – | – | – | 99 (99) mV | 0.73 | 99 (99) mV | Cn1c(-c2cc[n+](C)cc2)nc2ccccc21 [BIP^+·BF4^−, 1-methyl-4-(1-methyl-1H-benzo[d]imidazol-2-yl)pyridin-1-ium tetrafluoroborate] | Ratio of anodic peak current (Ipa) to cathodic peak current (Ipc) (Ipa/Ipc) @50 mV s^−1 [1, 15]: 0.71; Formal potential (E^o′) [1, 16]: −1.41 V vs. Fc/Fc^+ |
